Values joined by “and” are separate entries in the source; they are usually repeats but may differ in a detail not shown here. Equal values may be shown once. am‑phg = not defined here; PRG = not defined here
Key:
HLA-A0201 = HLA-A0201 (Homo sapiens, UniProt P04439, D140Y/D185E/D98H/E176V/E277Q/G131W/G231S/I119V/I121R/I166T/I218V/L300P/L318F/N151K/N90K/P208A/P217A/Q86G/Q94H/R138H/R169H/T345S); assay type: binding
[1] = test system: HLA-A2::Mart-1(26-35) reactive T cells stimulated by T2 cells; experiment: T cell activation time course assay, IFNγ production (FACS), Mart-1 epitope; assay type: cell-based; settings: for % CD8+ T cells producing IFN-γ 0H / Geometric mean IFN-γ in arbitrary fluorescence units 0H: time point 0H (basal); for % CD8+ T cells producing IFN-γ 2H / Geometric mean IFN-γ in arbitrary fluorescence units 2H: time point 2H; for % CD8+ T cells producing IFN-γ 4H / Geometric mean IFN-γ in arbitrary fluorescence units 4H: time point 4H; for % CD8+ T cells producing IFN-γ 24H / Geometric mean IFN-γ in arbitrary fluorescence units 24H: time point 24H; for % CD8+ T cells producing IFN-γ 24H / Geometric mean IFN-γ in arbitrary fluorescence units 24H / % CD8+ T cells producing IFN-γ 48H / Geometric mean IFN-γ in arbitrary fluorescence units 48H: free peptide washed away; for % CD8+ T cells producing IFN-γ 48H / Geometric mean IFN-γ in arbitrary fluorescence units 48H: time point 48H
[2] = test system: […]-specific CD8+ T cells; experiment: Mouse vaccination study, tetramer analysis of blood, […]; assay type: in vivo; settings: mice vaccinated with 5 µg peptide with IFA and CpG, booster at day 97, several timepoints, versus […] vaccinated mice
Procedure: (§1) Three mouse vaccination studies were done using three different wild-type epitopes. In all cases, mice were vaccinated with the peptide supplemented with incomplete freunds ajuvant (IFA) and CpG. Analysis was done by analyzing blood samples with tetramers loaded with wild-type peptide in all cases.
(§2) Two groups of three mice were vaccinated with 5 µg of either […] or [am-phg][NVA]AGIGILT[PRG]. At day 97, mice were administred a second dose (booster). At several timepoints blood was taken and tested for […]-specific CD8+ T cells using tetramers loaded with […]. This was done for both groups of mice.

[3] = test system: T cell line specific for LLFGLALIEV; experiment: T cell activation, FACS based interferon-gamma production assay, Mage-C2 LLFGLALIEV
Text: FACS was employed to obtain results.
T cell activation was quantified using the FACS based interferon-gamma production assay as materials and methods section. Table 10 HLA binding and T cell activation of modified Melanoma-associated protein C2 (pp-qq) epitopes used in vaccination studies.

[4] = test system: LLFGLALIEV-specific CD8+ T cells; experiment: Mouse vaccination study, tetramer analysis of blood, LLFGLALIEV; assay type: in vivo; settings: mice vaccinated with 100 µg peptide with IFA and CpG, all times after day one, versus LLFGLALIEV vaccinated mice
Text: as §1
(§3) This was done for both groups of mice.

[5] = test system: […]-specific CD8+ T cells; experiment: Mouse vaccination study, […] tetramer analysis of blood; assay type: in vivo; settings: mice vaccinated with 5 µg peptide with IFA and CpG, booster at day 97; compared with […] vaccinated mice, at all times
Procedure: as §1, §2

[6] = test system: LLFGLALIEV-specific CD8+ T cells; experiment: Mouse vaccination study, LLFGLALIEV tetramer analysis of blood; assay type: in vivo; settings: mice vaccinated with 100 µg peptide with IFA and CpG; compared with LLFGLALIEV vaccinated mice, at all times after day one
Text: as §1, §3

[am-phg][NVA]AGIGILT[PRG]
% inhibition at T=4H and T=24H FP 4h (HLA-A0201): 67%
% inhibition at T=4H and T=24H FP 24h (HLA-A0201): 64%
IC50 Ratio (HLA-A0201): 8.3 and 8
% CD8+ T cells producing IFN-γ 0H ([1]; peptide 0.5 pM): 0%
Geometric mean IFN-γ in arbitrary fluorescence units 0H ([1]; peptide 0.5 pM): 141 arbitrary fluorescence units
% CD8+ T cells producing IFN-γ 2H ([1]; peptide 0.5 pM): 25%
Geometric mean IFN-γ in arbitrary fluorescence units 2H ([1]; peptide 0.5 pM): 197 arbitrary fluorescence units
% CD8+ T cells producing IFN-γ 4H ([1]; peptide 0.5 pM): 30%
Geometric mean IFN-γ in arbitrary fluorescence units 4H ([1]; peptide 0.5 pM): 342 arbitrary fluorescence units
% CD8+ T cells producing IFN-γ 24H ([1]; peptide 0.5 pM): 16%
Geometric mean IFN-γ in arbitrary fluorescence units 24H ([1]; peptide 0.5 pM): 165 arbitrary fluorescence units
% CD8+ T cells producing IFN-γ 48H ([1]; peptide 0.5 pM): 3%
Geometric mean IFN-γ in arbitrary fluorescence units 48H ([1]; peptide 0.5 pM): 105 arbitrary fluorescence units
% CD8+ T cells producing IFN-γ 0H ([1]; peptide 50 pM): 0%
Geometric mean IFN-γ in arbitrary fluorescence units 0H ([1]; peptide 50 pM): 110 arbitrary fluorescence units
% CD8+ T cells producing IFN-γ 2H ([1]; peptide 50 pM): 28%
Geometric mean IFN-γ in arbitrary fluorescence units 2H ([1]; peptide 50 pM): 252 arbitrary fluorescence units
% CD8+ T cells producing IFN-γ 4H ([1]; peptide 50 pM): 32%
Geometric mean IFN-γ in arbitrary fluorescence units 4H ([1]; peptide 50 pM): 550 arbitrary fluorescence units
% CD8+ T cells producing IFN-γ 24H ([1]; peptide 50 pM): 28%
Geometric mean IFN-γ in arbitrary fluorescence units 24H ([1]; peptide 50 pM): 344 arbitrary fluorescence units
% CD8+ T cells producing IFN-γ 48H ([1]; peptide 50 pM): 18%
Geometric mean IFN-γ in arbitrary fluorescence units 48H ([1]; peptide 50 pM): 222 arbitrary fluorescence units
[…]-specific CD8+ T cells (specific T cell numbers) [2]: higher

[PHG][2-AOC]FGLALIEV [listing 1 of 2 here]
% Positive TCR recognition % TCR [3]: 13.7%
Geometric mean in arbitrary fluorescence units Geo TCR [3]: 108 arbitrary fluorescence units
LLFGLALIEV-specific CD8+ T cells (specific T cell numbers) [4]: higher

[am-phg][NVA]AGIGILT[PRG] ({am‑phg-NVA}-AGIGILT-{PRG}; reading uncertain; also: printed as [am-phg][NVA]AGIGILT[PRG])
[…]-specific CD8+ T cells in blood [5]: specific T cell numbers were higher

[PHG][2-AOC]FGLALIEV [listing 2 of 2 here]
LLFGLALIEV-specific CD8+ T cells in blood [6]: specific T cell numbers were higher
